Laboratory results as given in US20130331347A1, “Treatment of Clostridium Difficile Infection in Patients Undergoing Antibiotic Therapy” (Optimer Pharmaceuticals, Inc., priority 2010, published 2013).

Test system: Clostridium difficile infection (CDI)
Assay: Concomitant antibiotics (CAs) during CDI treatment: PO fidaxomicin vs PO vancomycin, clinical outcome review
Assay type: in vivo, human
Details: for Global Cure (clinical cure with no recurrence) / Clinical Cure / Recurrence: per protocol (PP); for Clinical Cure: 10 days of study drug; for Recurrence: CDI recurrence during 4-wk follow-up
Procedure: Administration of concomitant antibiotics (CAs) to subjects during the 10 days of study drug administration (PO Fidaxomicin (FDX 200 mg BID)) vs. (PO Vancomycin (Vanc 125 mg QID)) through 4-wk follow-up period was reviewed. End points were the effect of CAs on clinical cure, CDI recurrence during 4-wk follow-up, and global cure (clinical cure with no recurrence).

[1] = in those who received CAs, in words

SMILES	Global Cure (clinical cure with no recurrence) (CA (concomitant antibiotics)) [%]	Clinical Cure (CA (concomitant antibiotics)) [%]	Recurrence (CA (concomitant antibiotics)) [%]	Global Cure (clinical cure with no recurrence) (No CA) [%]	Clinical Cure (No CA) [%]	Recurrence (No CA) [%]	CDI recurrences compared to Vanc [1]	global cures compared to Vanc [1]
CCc1c(Cl)c(O)c(Cl)c(O)c1C(=O)O[C@H]1[C@H](O)[C@H](OC)[C@H](OC/C2=C\C=C\C[C@H](O)/C(C)=C/[C@H](CC)[C@@H](O[C@@H]3OC(C)(C)[C@@H](OC(=O)C(C)C)[C@H](O)[C@@H]3O)/C(C)=C/C(C)=C/C[C@@H]([C@@H](C)O)OC2=O)O[C@@H]1C [FDX, fidaxomicin]	72	87	23	79	93	11	lower	significantly improved
CN[C@H](CC(C)C)C(=O)N[C@H]1C(=O)N[C@@H](CC(N)=O)C(=O)N[C@H]2C(=O)N[C@H]3C(=O)N[C@H](C(=O)N[C@H](C(=O)O)c4cc(O)cc(O)c4-c4cc3ccc4O)[C@H](O)c3ccc(c(Cl)c3)Oc3cc2cc(c3O[C@@H]2O[C@H](CO)[C@@H](O)[C@H](O)[C@H]2O[C@H]2C[C@](C)(N)[C@H](O)[C@H](C)O2)Oc2ccc(cc2Cl)[C@H]1O [Vanc, Vancomycin, reference compound]	50	77	40	72	94	18		
